Assay results: ChEMBL document CHEMBL4184137, “Lysine Deacetylase Inhibitors in Parasites: Past, Present, and Future Perspectives” (J Med Chem, 2017)
*1 amine or outer side, *2 acyl side, *3 side chain or, on linkers, in order; H or OH if unused. Where a SMILES comes first, the peptide text is derived from it. Bridges are numbered along the chain shown (N, C = ends). [ ]: non-standard residue; d: D form. X1 = CC(C)CCCCCCCCC[C@H](CC(=O)[*:1])O[*:2]

How the values were obtained:
Leishmania infantum [1] = assay: Antiproliferative activity against amastigote stage of Leishmania infantum measured for 1 min and 45 secs by propidium iodide staining-based flow cytometry; assay type: functional, organism-based
Schistosoma mansoni [2] = assay: Antiparasitic activity against Schistosoma mansoni assessed as cumulative egg reduction at 20 uM; assay type: functional; parameters: scale not given: the % may be the effect or the level left
Leishmania infantum [3] = assay: Antiproliferative activity against promastigote stage of Leishmania infantum measured for 1 min and 45 secs by propidium iodide staining-based flow cytometry; assay type: functional, organism-based
Leishmania infantum [4] = assay: Antileishmanial activity against amastigote stage of Leishmania infantum MHOM/MA671TMAP263 expressing luciferase after 72 hrs by luciferase assay; assay type: functional, organism-based; conditions: MHOM/MA671TMAP263, 72 h
Schistosoma mansoni [5] = assay: Antiparasitic activity against Schistosoma mansoni assessed cell viability at 20 uM after 5 days; assay type: functional
Plasmodium falciparum [6] = assay: Antiplasmodial activity against Plasmodium falciparum 3D7 assessed as growth inhibition after 24 hrs by measuring incorporation of [3H]-hypoxanthine by liquid scintillation counting method; assay type: functional, organism-based
Schistosoma mansoni [7] = assay: Antiparasitic activity against Schistosoma mansoni assessed as pairing at 20 uM after 6 days relative to control; assay type: functional
[8] = Inhibition of Plasmodium falciparum Sir2A
Schistosoma mansoni [9] = assay: Antiparasitic activity against Schistosoma mansoni assessed as pairing at 20 uM after 5 days relative to control; assay type: functional
Trypanosoma cruzi = assay: Antitrypanosomal activity against epimastigotes of Trypanosoma cruzi […] by Alamar Blue assay; assay type: functional, organism-based
Schistosoma mansoni [10] = assay: Antiparasitic activity against Schistosoma mansoni assessed cell viability at 20 uM after 4 days; assay type: functional
[11] = Inhibition of recombinant Trypanosoma cruzi Sir2rp3
Plasmodium falciparum [12] = assay: Gametocytocidal activity against transgenic GFP-fused Plasmodium falciparum NF54 early stage gametocytes after 72 hrs by Mitotracker Red CMH2XRos staining based microscopic method; assay type: functional, organism-based; conditions: NF54, 72 h
Plasmodium falciparum [13] = assay: Gametocytocidal activity against transgenic GFP-fused Plasmodium falciparum NF54 late stage gametocytes after 72 hrs by Mitotracker Red CMH2XRos staining based microscopic method; assay type: functional, organism-based; conditions: NF54, 72 h
[14] = target: T1, NAD-dependent protein deacetylase sirtuin-1 (Homo sapiens, UniProt Q96EB6); assay: Inhibition of human SIRT1
T1 sequence (Q96EB6 whole entry): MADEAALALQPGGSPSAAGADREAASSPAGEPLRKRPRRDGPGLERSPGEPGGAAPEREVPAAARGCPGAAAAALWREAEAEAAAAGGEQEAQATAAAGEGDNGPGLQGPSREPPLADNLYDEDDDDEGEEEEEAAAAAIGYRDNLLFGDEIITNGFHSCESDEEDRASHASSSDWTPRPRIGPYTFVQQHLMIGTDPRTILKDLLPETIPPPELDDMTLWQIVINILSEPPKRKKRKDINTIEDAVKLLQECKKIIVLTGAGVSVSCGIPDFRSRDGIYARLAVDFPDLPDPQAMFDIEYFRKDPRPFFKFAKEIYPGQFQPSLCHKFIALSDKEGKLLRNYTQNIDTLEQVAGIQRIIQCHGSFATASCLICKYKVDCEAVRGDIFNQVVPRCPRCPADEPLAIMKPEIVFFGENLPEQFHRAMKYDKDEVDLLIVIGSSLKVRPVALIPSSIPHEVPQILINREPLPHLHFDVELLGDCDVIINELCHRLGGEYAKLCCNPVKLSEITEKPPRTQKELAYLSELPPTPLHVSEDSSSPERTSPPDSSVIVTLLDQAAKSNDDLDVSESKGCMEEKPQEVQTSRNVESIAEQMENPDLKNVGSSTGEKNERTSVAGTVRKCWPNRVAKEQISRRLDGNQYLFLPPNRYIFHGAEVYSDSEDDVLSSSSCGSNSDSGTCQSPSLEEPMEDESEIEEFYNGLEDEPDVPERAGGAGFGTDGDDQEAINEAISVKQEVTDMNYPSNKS

For `CC(NC(=O)c1ccccc1/N=C/c1c(O)ccc2ccccc12)c1ccccc1` (stereo not drawn) [SIRTINOL], the IC50 (Leishmania infantum [1]) was 30 µM, the Activity (Schistosoma mansoni [2]) was 42% and the IC50 (Leishmania infantum [3]) was > 60 µM. It also gave an IC50 (Leishmania infantum [4]) of 30 µM, an Activity (Schistosoma mansoni [5]) of 100% and an IC50 (Plasmodium falciparum [6]) of 9 to 13 µM. For the same molecule, the Activity (Schistosoma mansoni [7]) was 75% and the IC50 [8] was > 50 µM.

For `CC(C(=O)Nc1cccc(/N=C/c2c(O)ccc3ccccc23)c1)c1ccccc1` (stereo not drawn) [SALERMIDE], the Activity (Schistosoma mansoni [9]) was 100%, the Activity (Schistosoma mansoni [2]) was 95% and the EC50 (Trypanosoma cruzi) was 10.6 µM. The Activity (Schistosoma mansoni [10]) was 100% and the IC50 [11] was 1 µM.

For `O=C(CCCCCCC(=O)Nc1ccccc1)NO` [VORINOSTAT], the IC50 (Plasmodium falciparum [12]) was 1.68 to 6.65 µM and the IC50 (Plasmodium falciparum [13]) was 1.68 to 6.65 µM.

In the case of `CC(C)CCCCCCCCC[C@@H]1CC(=O)N[C@@H](CCC(=O)O)C(=O)N[C@@H](CC(C)C)C(=O)N[C@H](CC(C)C)C(=O)N[C@@H](C(C)C)C(=O)N[C@@H](CC(=O)O)C(=O)N[C@H](CC(C)C)C(=O)N[C@@H](CC(C)C)C(=O)O1` [SURFACTIN] (EL[dL]VD[dL]L; linker N-C via X1), the IC50 [14] is reported as > 600 µM, the IC50 (Plasmodium falciparum [6]) is reported as 9 µM and the IC50 [8] is reported as 35 µM.
